The first experiment concerns the target T1, human recombinant PDE9 enzyme (Homo sapiens, UniProt O76083).
T1 construct: made in house; host or cells: SF-9 insect cells
Kind of experiment: Phosphodiesterase 9 (PDE9) inhibitory activity, Scintillation Proximity (SPA) assay.
Conditions: not given
It counts as biochemical. In a few lines: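 Scintillation proximity read-out of [3H]cGMP hydrolysis after 30 min at room temperature, with enzyme addition starting the reaction. The enzyme was human recombinant PDE9 expressed in SF-9 cells, titrated to keep substrate turnover at 20% or less. Compound wells held 2% DMSO final, and background was defined with excess PDE inhibitor.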
T1 sequence (O76083 whole entry): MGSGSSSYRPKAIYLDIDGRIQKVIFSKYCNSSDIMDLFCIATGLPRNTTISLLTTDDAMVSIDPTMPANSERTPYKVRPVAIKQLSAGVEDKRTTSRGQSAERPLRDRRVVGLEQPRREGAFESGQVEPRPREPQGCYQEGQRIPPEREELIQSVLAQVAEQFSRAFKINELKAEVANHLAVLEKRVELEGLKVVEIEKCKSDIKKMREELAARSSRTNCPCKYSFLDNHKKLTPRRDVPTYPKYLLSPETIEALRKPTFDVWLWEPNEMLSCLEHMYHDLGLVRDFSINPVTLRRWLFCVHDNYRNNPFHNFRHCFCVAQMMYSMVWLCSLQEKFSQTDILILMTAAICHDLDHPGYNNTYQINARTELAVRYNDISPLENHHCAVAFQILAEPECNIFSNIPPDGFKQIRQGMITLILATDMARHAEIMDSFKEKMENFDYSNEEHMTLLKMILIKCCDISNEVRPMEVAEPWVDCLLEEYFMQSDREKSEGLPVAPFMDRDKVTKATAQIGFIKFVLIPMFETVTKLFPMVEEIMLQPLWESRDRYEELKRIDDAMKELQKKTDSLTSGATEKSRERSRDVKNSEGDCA
In the case of `Cc1cnc(CN2C[C@@H](C)[C@H](c3nc4c(cnn4C4CCOCC4)c(=O)[nH]3)C2)cn1` [Example 75, 6-{(3S,4S)-4-methyl-1-[(5-methylpyrazin-2-yl)methyl]pyrrolidin-3-yl}-1-(tetrahydro-2H-pyran-4-yl)-1,5-dihydro-4H-pyrazolo[3,4-d]pyrimidin-4-one], the half-maximal inhibitory concentration (IC50) (in general, the concentration at which inhibition is half-maximal) worked out at 5.46 nM.

The experiment is the same for the next values; noted with them: human recombinant PDE9 from SF-9 cells; 50 nM [3H]cGMP; room temperature, 30 min; Examples 3-114; read-out: G5678A (U): IC50.
As to `CC(C)n1ncc2c(=O)[nH]c([C@@H]3CN(Cc4cnc5ccccc5c4)C[C@H]3C)nc21` (racemic) [Example 34, 1-isopropyl-6-[(3,4-trans)-4-methyl-1-(quinolin-3-ylmethyl)pyrrolidin-3-yl]-1,5-dihydro-4H-pyrazolo[3,4-d]pyrimidin-4-one], the IC50 turned out to be 4.33 nM. `C[C@@H]1CN(Cc2ccc(C(F)(F)F)nc2)C[C@H]1c1nc2c(cnn2C2CCCC2)c(=O)[nH]1` (racemic) [Example 11, 1-cyclopentyl-6-[(3,4-trans)-4-methyl-1-{[6-(trifluoromethyl)pyridin-3-yl]methyl}pyrrolidin-3-yl]-1,5-dihydro-4H-pyrazolo[3,4-d]pyrimidin-4-one]: the IC50 amounted to 18.9 nM. Turning to `COc1cccc(CN2C[C@@H](C)[C@H](c3nc4c(cnn4C4CCOCC4)c(=O)[nH]3)C2)c1` [Example 104, 6-[(3S,4S)-1-(3-methoxybenzyl)-4-methylpyrrolidin-3-yl]-1-(tetrahydro-2H-pyran-4-yl)-1,5-dihydro-4H-pyrazolo[3,4-d]pyrimidin-4-one], the IC50 came to 3.98 nM. With `CC(C)n1ncc2c(=O)[nH]c([C@@H]3CN(Cc4ccc5cccc(F)c5n4)C[C@H]3C)nc21` (racemic) [Example 70, 6-{(3,4-trans)-1-[(8-fluoroquinolin-2-yl)methyl]-4-methylpyrrolidin-3-yl}-1-isopropyl-1,5-dihydro-4H-pyrazolo[3,4-d]pyrimidin-4-one], the IC50 was 10.2 nM.

On to `CC(C)n1ncc2c(=O)[nH]c([C@@H]3CN(Cc4ccc5ccccc5n4)C[C@H]3C)nc21` (racemic) [Example 32, 1-isopropyl-6-[(3,4-trans)-4-methyl-1-(quinolin-2-ylmethyl)pyrrolidin-3-yl]-1,5-dihydro-4H-pyrazolo[3,4-d]pyrimidin-4-one], for which the IC50 worked out at 5.19 nM. Same read-out and setting: then `CC(C)n1ncc2c(=O)[nH]c([C@@H]3CN(Cc4ccc5nccnc5c4)C[C@H]3C)nc21` [Example 36, 1-isopropyl-6-[(3S,4S)-4-methyl-1-(quinoxalin-6-ylmethyl)pyrrolidin-3-yl]-1,5-dihydro-4H-pyrazolo[3,4-d]pyrimidin-4-one], with 5.08 nM. Consider `C[C@@H]1CN(Cc2ccccc2)C[C@H]1c1nc2c(cnn2C2CCCC2)c(=O)[nH]1` [Example 3, 6-[(3S,4S)-1-benzyl-4-methylpyrrolidin-3-yl]-1-cyclopentyl-1,5-dihydro-4H-pyrazolo[3,4-d]pyrimidin-4-one], for which the IC50 amounted to 9.46 nM.

Take `CC[C@@H]1CN(Cc2cnc3ccccc3c2)C[C@H]1c1nc2c(cnn2C(C)C)c(=O)[nH]1` (racemic) [Example 44, 6-[(3,4-trans)-4-ethyl-1-(quinolin-3-ylmethyl)pyrrolidin-3-yl]-1-isopropyl-1,5-dihydro-4-H-pyrazolo[3,4-d]pyrimidin-4-one]: the 50% inhibitory concentration (IC50) stood at 10.9 nM. `O=c1[nH]c([C@@H]2CN(Cc3ccc4nccnc4c3)C[C@H]2C2CC2)nc2c1cnn2C1CCCC1` (racemic) [Example 56, 1-cyclopentyl-6-[(3,4-trans)-4-cyclopropyl-1-(quinoxalin-6-ylmethyl)pyrrolidin-3-yl]-1,5-dihydro-4H-pyrazolo[3,4-d]pyrimidin-4-one]: the IC50 was found to be 4.81 nM.

Still in this experiment, the particulars now being: human recombinant PDE9 from SF-9 cells; 50 nM [3H]cGMP; room temperature, 30 min; additional compounds Ex. 115-228; read-out: G5678A (U):IC50.
As to `CCn1nccc1CN1C[C@@H](C)[C@H](c2nc3c(cnn3C3CCCC3)c(=O)[nH]2)C1` (racemic) [Example 223, 1-cyclopentyl-6-{(3,4-trans)-1-[(1-ethyl-1H-pyrazol-5-yl)methyl]-4-methylpyrrolidin-3-yl}-1,5-dihydro-4H-pyrazolo[3,4-d]pyrimidin-4-one], the half-maximal inhibitory concentration (IC50) came out at 14.4 nM. For the compound `C[C@@H]1CN(Cc2ccc3nsnc3c2)C[C@H]1c1nc2c(cnn2C2CCCC2)c(=O)[nH]1` (racemic) [Example 208, 6-[(3,4-trans)-1-(2,1,3-benzothiadiazol-5-ylmethyl)-4-methylpyrrolidin-3-yl]-1-cyclopentyl-1,5-dihydro-4H-pyrazolo[3,4-d]pyrimidin-4-one], the IC50 was 7.13 nM.

`CC(C)Oc1ccccc1CN1C[C@@H](C)[C@H](c2nc3c(cnn3C3CCCC3)c(=O)[nH]2)C1` (racemic) [Example 181, 1-cyclopentyl-6-[(3,4-trans)-1-(2-isopropoxybenzyl)-4-methylpyrrolidin-3-yl]-1,5-dihydro-4H-pyrazolo[3,4-d]pyrimidin-4-one]: the IC50 was 134 nM.

Consider `C[C@@H]1CN(Cc2c(F)cccc2F)C[C@H]1c1nc2c(cnn2C2CCCC2)c(=O)[nH]1` (racemic) [Example 210, 1-cyclopentyl-6-[(3,4-trans)-1-(2,6-diflurobenzyl)-4-methylpyrrolidin-3-yl]-1,5-dihydro-4H-pyrazolo[3,4-d]pyrimidin-4-one], for which the IC50 amounted to 16.2 nM. The same measure, in the same setting: the result for `COc1ccc(CN2C[C@@H](C)[C@H](c3nc4c(cnn4C4CCCC4)c(=O)[nH]3)C2)cc1OC` (racemic) [Example 176, 1-cyclopentyl-6-[(3,4-trans)-1-(3,4-dimethoxybenzyl)-4-methylpyrrolidin-3-yl]-1,5-dihydro-4H-pyrazolo[3,4-d]pyrimidin-4-one] reads 27.1 nM; that for `C[C@@H]1CN(Cc2ccc(F)c(Cl)c2)C[C@H]1c1nc2c(cnn2C2CCCC2)c(=O)[nH]1` (racemic) [Example 158, 6-[(3,4-trans)-1-(3-chloro-4-fluorobenzyl)-4-methylpyrrolidin-3-yl]-1-cyclopentyl-1,5-dihydro-4H-pyrazolo[3,4-d]pyrimidin-4-one], 50.9 nM. For `COc1ccc(F)cc1CN1C[C@@H](C)[C@H](c2nc3c(cnn3C3CCCC3)c(=O)[nH]2)C1` (racemic) [Example 128, 1-cyclopentyl-6-[(3,4-trans)-1-(5-fluoro-2-methoxybenzyl)-4-methylpyrrolidin-3-yl]-1,5-dihydro-4H-pyrazolo[3,4-d]pyrimidin-4-one], the IC50 is 70.9 nM. As for `COc1ccncc1CN1C[C@@H](C)[C@H](c2nc3c(cnn3C3CCCC3)c(=O)[nH]2)C1` (racemic) [Example 171, 1-cyclopentyl-6-{(3,4-trans)-1-[(4-methoxypyridin-3-yl)methyl]-4-methylpyrrolidin-3-yl}-1,5-dihydro-4H-pyrazolo[3,4-d]pyrimidin-4-one], the IC50 was determined as 51.3 nM.

Consider `Cc1cccc(CN2C[C@@H](C)[C@H](c3nc4c(cnn4C4CCCC4)c(=O)[nH]3)C2)c1C` (racemic) [Example 118, 1-cyclopentyl-6-[(3,4-trans)-1-(2,3-dimethylbenzyl)-4-methylpyrrolidin-3-yl]-1,5-dihydro-4H-pyrazolo[3,4-d]pyrimidin-4-one], for which the 50% inhibitory concentration (IC50) came to 74 nM. As to `Cc1cc(C)cc(CN2C[C@@H](C)[C@H](c3nc4c(cnn4C4CCCC4)c(=O)[nH]3)C2)c1` (racemic) [Example 197, 1-cyclopentyl-6-[(3,4-trans)-1-(3,5-dimethylbenzyl)-4-methylpyrrolidin-3-yl]-1,5-dihydro-4H-pyrazolo[3,4-d]pyrimidin-4-one], the IC50 amounted to 53.5 nM.

(Values after patent US7964607B2, “Pyrazolo[3,4-d]pyrimidine compounds” (Pfizer Inc., priority 2007, dated 2011).)
